# Assay results published in patent US10168342B2, “Lipid probes and uses thereof” (THE SCRIPPS RESEARCH INSTITUTE, priority 2015, dated 2019).
# Read-outs that look alike come from different tables or passages of the source.
# How the values were obtained:
# [1] = target: T1, AEA-DA lipid probe targets in Neuro2a cells (Mus musculus, UniProt O88455)
# T1 sequence (O88455 1-471): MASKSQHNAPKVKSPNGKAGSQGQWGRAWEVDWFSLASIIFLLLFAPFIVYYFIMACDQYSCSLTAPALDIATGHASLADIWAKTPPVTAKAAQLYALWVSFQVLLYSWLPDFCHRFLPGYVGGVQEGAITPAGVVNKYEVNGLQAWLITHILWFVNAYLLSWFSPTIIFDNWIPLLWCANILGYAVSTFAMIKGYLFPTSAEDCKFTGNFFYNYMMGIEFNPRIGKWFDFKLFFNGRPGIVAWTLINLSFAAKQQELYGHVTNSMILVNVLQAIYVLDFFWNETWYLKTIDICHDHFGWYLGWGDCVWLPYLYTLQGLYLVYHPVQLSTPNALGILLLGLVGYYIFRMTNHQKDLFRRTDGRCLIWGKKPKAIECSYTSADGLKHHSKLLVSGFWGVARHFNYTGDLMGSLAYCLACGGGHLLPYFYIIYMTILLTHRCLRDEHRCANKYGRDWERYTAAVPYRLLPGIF
# [2] = target: T2, AEA-DA lipid probe targets in Neuro2a cells (Mus musculus, UniProt P32037)
# T2 sequence (P32037 1-493): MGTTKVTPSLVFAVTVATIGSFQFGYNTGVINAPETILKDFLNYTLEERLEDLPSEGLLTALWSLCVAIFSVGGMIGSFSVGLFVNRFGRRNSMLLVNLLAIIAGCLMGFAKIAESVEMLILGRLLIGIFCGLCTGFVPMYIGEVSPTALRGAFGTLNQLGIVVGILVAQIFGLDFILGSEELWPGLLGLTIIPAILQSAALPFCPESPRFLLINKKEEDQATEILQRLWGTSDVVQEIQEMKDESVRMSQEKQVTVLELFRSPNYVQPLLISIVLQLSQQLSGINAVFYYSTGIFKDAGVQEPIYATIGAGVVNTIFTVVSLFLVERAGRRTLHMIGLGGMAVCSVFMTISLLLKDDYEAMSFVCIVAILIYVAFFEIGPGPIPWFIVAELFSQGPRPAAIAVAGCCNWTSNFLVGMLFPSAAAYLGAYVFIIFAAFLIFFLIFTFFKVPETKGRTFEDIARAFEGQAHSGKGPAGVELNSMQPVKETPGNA
# [3] = target: T3, AEA-DA lipid probe targets in Neuro2a cells (Mus musculus, UniProt Q60605)
# T3 sequence (Q60605 1-151): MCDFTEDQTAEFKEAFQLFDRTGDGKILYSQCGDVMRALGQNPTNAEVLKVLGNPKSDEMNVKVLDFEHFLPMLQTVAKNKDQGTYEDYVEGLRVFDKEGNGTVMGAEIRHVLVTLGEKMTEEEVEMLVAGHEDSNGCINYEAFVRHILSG
# [4] = target: T4, AEA-DA lipid probe targets in Neuro2a cells (Mus musculus, UniProt P18572)
# T4 sequence (P18572 22-389): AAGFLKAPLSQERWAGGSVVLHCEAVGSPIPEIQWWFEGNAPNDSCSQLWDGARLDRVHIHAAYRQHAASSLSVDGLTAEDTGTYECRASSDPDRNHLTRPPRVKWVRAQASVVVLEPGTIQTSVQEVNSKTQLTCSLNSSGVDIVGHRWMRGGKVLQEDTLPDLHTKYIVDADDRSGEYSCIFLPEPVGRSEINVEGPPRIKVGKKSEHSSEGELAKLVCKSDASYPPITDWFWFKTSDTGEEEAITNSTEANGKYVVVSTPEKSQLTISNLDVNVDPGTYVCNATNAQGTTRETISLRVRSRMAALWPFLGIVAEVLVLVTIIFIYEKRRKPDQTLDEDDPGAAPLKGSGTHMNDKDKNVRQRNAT
# [5] = target: AEA-DA lipid probe targets in Neuro2a cells (Mus musculus, UniProt Q8VE88)
# [6] = target: T5, AEA-DA lipid probe targets in Neuro2a cells (Mus musculus, UniProt Q8R0X7); conditions: for SILAC ratio, SGPL1 (O95470): Neuro2a cells, AEA-DA probe
# T5 sequence (Q8R0X7 1-568): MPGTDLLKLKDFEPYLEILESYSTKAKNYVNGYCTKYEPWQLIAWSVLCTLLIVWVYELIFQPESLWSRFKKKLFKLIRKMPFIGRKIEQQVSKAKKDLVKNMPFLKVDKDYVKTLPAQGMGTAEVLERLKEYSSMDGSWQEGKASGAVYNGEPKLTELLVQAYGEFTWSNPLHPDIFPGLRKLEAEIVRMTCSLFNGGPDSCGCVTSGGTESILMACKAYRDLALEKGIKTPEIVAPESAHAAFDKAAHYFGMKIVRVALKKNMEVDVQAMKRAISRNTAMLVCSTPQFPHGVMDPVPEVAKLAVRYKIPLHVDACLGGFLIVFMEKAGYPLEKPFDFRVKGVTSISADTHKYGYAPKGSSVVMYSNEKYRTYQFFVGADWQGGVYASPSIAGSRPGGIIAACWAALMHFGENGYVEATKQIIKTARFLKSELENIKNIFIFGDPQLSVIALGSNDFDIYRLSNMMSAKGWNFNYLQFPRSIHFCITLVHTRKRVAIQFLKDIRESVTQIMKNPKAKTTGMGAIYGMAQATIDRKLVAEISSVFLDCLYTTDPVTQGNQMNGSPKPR
# Chain of AEA-DA lipid probe targets in Neuro2a cells (Mus musculus, UniProt Q8VE88) (Q8VE88 whole entry): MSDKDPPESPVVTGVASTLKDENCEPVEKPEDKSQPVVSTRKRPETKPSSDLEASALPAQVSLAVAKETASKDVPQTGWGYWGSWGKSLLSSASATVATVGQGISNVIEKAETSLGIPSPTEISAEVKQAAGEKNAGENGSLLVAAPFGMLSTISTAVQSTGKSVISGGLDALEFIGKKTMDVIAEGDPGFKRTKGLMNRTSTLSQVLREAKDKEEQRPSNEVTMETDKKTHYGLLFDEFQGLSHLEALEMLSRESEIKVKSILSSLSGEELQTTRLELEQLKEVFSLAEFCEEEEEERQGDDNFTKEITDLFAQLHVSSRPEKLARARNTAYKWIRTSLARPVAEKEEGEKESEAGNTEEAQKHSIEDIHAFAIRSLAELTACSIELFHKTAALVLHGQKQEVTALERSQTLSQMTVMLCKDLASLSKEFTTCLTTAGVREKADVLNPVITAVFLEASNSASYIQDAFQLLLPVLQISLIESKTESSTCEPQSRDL
SMILES,SILAC ratio Dhcr7 ([1]; competitor 25 μM),"SILAC ratio, Slc2a3 ([2]; competitor 25 μM)",SILAC ratio Myl6 ([3]; competitor 25 μM),SILAC ratio Bsg ([4]; competitor 25 μM),"SILAC ratio, Fam114a2 ([5]; competitor 25 μM)","SILAC ratio, SGPL1 (O95470) ([6]; competitor 25 μM)","SILAC ratio, Sgpl1 ([6]; competitor 25 μM)",further results
"CCCCC/C=C\C/C=C\C/C=C\C/C=C\CCCC(=O)NCCO [AEA, anandamide, reference compound]",,,,,,,,"SILAC ratio Dhcr7 ([1]; competitor 200 μM): 1.5; SILAC ratio, Slc2a3 ([2]; competitor 200 μM): 1.0; SILAC ratio Myl6 ([3]; competitor 200 μM): 1.0; SILAC ratio Bsg ([4]; competitor 200 μM): 1.3; SILAC ratio, Fam114a2 ([5]; competitor 200 μM): 1.4; SILAC ratio, SGPL1 (O95470) ([6]; competitor 200 μM): 2.7; SILAC ratio, Sgpl1 ([6]; competitor 200 μM): 2.7"
"O=C(/C=C/c1cccnc1)NCCCCC1CCN(C(=O)c2ccccc2)CC1 [FK-866, reference compound]",0.9,1.1,1.3,1.0,1.0,1.7,1.7,
"CN1CCN(C(=O)c2c(-c3ccccc3)c3cc([N+](=O)[O-])ccc3n2C)CC1 [KML110, (1-Methyl-5-nitro-3-phenyl-1H-indol-2-yl)(4-methylpiperazin-1-yl)methanone]",1.2,1.2,1.4,1.3,2.2,,1.4,
"CN1CCN(C(=O)c2[nH]c3ccc([N+](=O)[O-])cc3c2-c2ccccc2)CC1 [MJN228, (4-Methylpiperazin-1-yl)(5-nitro-3-phenyl-1H-indol-2-yl)methanone]",1.2,1.4,1.0,1.6,3.5,1.5,1.5,"SILAC ratio Dhcr7 ([1]; competitor 10 μM): 1.1; SILAC ratio Dhcr7 ([1]; competitor 50 μM): 1.5; SILAC ratio Dhcr7 ([1]; competitor 100 μM): 1.7; SILAC ratio, Slc2a3 ([2]; competitor 10 μM): 1.2; SILAC ratio, Slc2a3 ([2]; competitor 50 μM): 1.2; SILAC ratio, Slc2a3 ([2]; competitor 100 μM): 1.2; SILAC ratio Myl6 ([3]; competitor 10 μM): 1.1; SILAC ratio Myl6 ([3]; competitor 50 μM): 1.3; SILAC ratio Bsg ([4]; competitor 10 μM): 1.4; SILAC ratio Bsg ([4]; competitor 50 μM): 1.2; SILAC ratio Bsg ([4]; competitor 100 μM): 1.6; SILAC ratio, Fam114a2 ([5]; competitor 10 μM): 1.6; SILAC ratio, Fam114a2 ([5]; competitor 50 μM): 4.1; SILAC ratio, Fam114a2 ([5]; competitor 100 μM): 7.6; SILAC ratio, Sgpl1 ([6]; competitor 10 μM): 1.3; SILAC ratio, Sgpl1 ([6]; competitor 50 μM): 1.8; SILAC ratio, Sgpl1 ([6]; competitor 100 μM): 2.7"
"C=CCN(C)CCCCCCOc1ccc(C(=O)c2ccc(Br)cc2)c(F)c1 [Ro 48-8071, reference compound]",0.8,1.0,0.7,1.1,1.6,1.2,1.2,
